Test results: patent US9399637B2, “Substituted heteroaryl compounds and methods of use” (Calitor Sciences, LLC, priority 2014, dated 2016)

Legend:
TYK2 (h) = molecular target: T1, TYK2 (h) (Homo sapiens, UniProt P29597); assay: TYK2 kinase assay; type: biochemical
T1 construct: purchased Millipore UK Ltd (assays run there as a service)
Protocol: (§1) Kinase assays can be performed by measurement of incorporation of γ-^33P ATP into immobilized myelin basic protein (MBP). High binding white 384 well plates (Greiner) are coated with MBP (Sigma #M-1891) by incubation of 60 μL/well of 20 μg/mL MBP in Tris-buffered saline (TBS; 50 mM Tris pH 8.0, 138 mM NaCl, 2.7 mM KCl) for 24 h at 4° C. Plates are washed 3× with 100 μL TBS. Kinase reactions are carried out in a total volume of 34 μL in kinase buffer (5 mM Hepes pH 7.6, 15 mM NaCl, 0.01% bovine gamma globulin (Sigma #I-5506), 10 mM MgCl2, 1 mM DTT, 0.02% TritonX-100). Compound dilutions are performed in DMSO and added to assay wells to a final DMSO concentration of 1%. Each data point is measured in duplicate, and at least two duplicate assays are performed for each individual compound determination. Enzyme is added to final concentrations of 10 nM or 20 nM, for example. A mixture of unlabeled ATP and γ-^33P ATP is added to start the reaction (2×10^6 cpm of γ-^33P ATP per well (3000 Ci/mmole) and 10 μM unlabeled ATP, typically. The reactions are carried out for 1 h at room temperature with shaking Plates are washed 7× with TBS, followed by the addition of 50 μL/well scintillation fluid (Wallac). Plates are read using a Wallac Trilux counter. This is only one format of such assays; various other formats are possible, as known to one skilled in the art. […]

Aurora-A (h) = molecular target: T2, Aurora-A (h) (Homo sapiens, UniProt O14965); assay: Aurora-A kinase assay; type: biochemical
T2 construct: purchased Millipore UK Ltd (assays run there as a service)
T2 sequence (O14965 1-403): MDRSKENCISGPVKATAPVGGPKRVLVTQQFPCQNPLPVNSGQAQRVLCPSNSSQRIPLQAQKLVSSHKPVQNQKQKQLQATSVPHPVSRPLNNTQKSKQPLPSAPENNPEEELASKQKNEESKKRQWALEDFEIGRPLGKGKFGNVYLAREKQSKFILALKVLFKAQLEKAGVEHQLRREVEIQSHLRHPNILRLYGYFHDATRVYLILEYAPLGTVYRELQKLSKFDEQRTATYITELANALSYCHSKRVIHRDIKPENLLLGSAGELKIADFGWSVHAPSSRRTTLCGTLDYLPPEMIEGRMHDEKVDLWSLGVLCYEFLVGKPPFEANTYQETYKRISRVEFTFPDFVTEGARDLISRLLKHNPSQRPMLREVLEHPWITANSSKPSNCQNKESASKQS
Protocol: as §1

[1] = Pharmacokinetics after intravenous and oral administration in rats; type: in vivo; settings: iv dosing, 1 mg/kg; for AUC(0-t) / half-life / Vd: rat, plasma; for Vd: read-out: Vss
Protocol: The LC/MS/MS system used in the analysis consists of an Agilent 1200 Series vacuum degasser, binary pump, well-plate autosampler, thermostatted column compartment, the Agilent G6430 Triple Quadrupole Mass Spectrometer with an electrosprayionization (ESI) source. Quantitative analysis was carried out using MRM mode. The parameters for MRM transitions are in the Table A.
An Agilent XDB-C18, 2.1×30 mm, 3.5 μM column was used for the analysis. 5 μL of the samples were injected. Analysis condition: The mobile phase was 0.1% formic acid in water (A) and 0.1% formic acid in methanol (B). The flow rate was 0.4 mL/min. And the gradient of Mobile phase was in the Table B.
Alternatively, an Agilent 6330 series LC/MS/MS spectrometer equipped with G1312A binary pumps, a G1367A autosampler and a G1314C UV detector were used in the analysis. An ESI source was used on the LC/MS/MS spectrometer. The analysis was done in positive ion mode as appropriate and the MRM transition for each analyte was optimized using standard solution. A Capcell MP-C18 100×4.6 mm I.D., […] column (Phenomenex, Torrance, Calif., USA) was used during the analysis. The mobile phase was 5 mM ammonia acetate, 0.1% MeOH in water (A): 5 mM ammonia acetate, 0.1% MeOH in acetonitrile (B) (70:30, v/v). The flow rate was 0.6 mL/min. Column was maintained at ambient temperature. 20 μL of the samples were injected.
The compounds disclosed herein are assessed in pharmacokinetic studies in mice, rats, dogs or monkeys. The compounds are administered as a water solution, 2% HPMC+1% TWEEN®80 in water solution, 5% DMSO+5% solutol in saline, 4% MC suspension or capsule. For the intravenous administration, the animals are generally given at 1 or 2 mg/kg dose. For the oral (p.o.) dosing, mice and rats are generally given 5 or 10 mg/kg dose, and dogs and monkeys are generally given 10 mg/kg dose. The blood samples (0.3 mL) are drawn at 0.25, 0.5, 1.0, 2.0, 3.0, 4.0, 6.0, 8.0, 12 and 24 h time points or 0.083, 0.25, 0.5, 1.0, 2.0, 4.0, 6.0, 8.0 and 24 h time points and centrifuged at 3,000 or 4000 rpm for 2 to 10 min. The plasma solutions are collected, and stored at −20° C. or −70° C. until analyzed by LC/MS/MS as described above.

T1 sequence (P29597 whole entry): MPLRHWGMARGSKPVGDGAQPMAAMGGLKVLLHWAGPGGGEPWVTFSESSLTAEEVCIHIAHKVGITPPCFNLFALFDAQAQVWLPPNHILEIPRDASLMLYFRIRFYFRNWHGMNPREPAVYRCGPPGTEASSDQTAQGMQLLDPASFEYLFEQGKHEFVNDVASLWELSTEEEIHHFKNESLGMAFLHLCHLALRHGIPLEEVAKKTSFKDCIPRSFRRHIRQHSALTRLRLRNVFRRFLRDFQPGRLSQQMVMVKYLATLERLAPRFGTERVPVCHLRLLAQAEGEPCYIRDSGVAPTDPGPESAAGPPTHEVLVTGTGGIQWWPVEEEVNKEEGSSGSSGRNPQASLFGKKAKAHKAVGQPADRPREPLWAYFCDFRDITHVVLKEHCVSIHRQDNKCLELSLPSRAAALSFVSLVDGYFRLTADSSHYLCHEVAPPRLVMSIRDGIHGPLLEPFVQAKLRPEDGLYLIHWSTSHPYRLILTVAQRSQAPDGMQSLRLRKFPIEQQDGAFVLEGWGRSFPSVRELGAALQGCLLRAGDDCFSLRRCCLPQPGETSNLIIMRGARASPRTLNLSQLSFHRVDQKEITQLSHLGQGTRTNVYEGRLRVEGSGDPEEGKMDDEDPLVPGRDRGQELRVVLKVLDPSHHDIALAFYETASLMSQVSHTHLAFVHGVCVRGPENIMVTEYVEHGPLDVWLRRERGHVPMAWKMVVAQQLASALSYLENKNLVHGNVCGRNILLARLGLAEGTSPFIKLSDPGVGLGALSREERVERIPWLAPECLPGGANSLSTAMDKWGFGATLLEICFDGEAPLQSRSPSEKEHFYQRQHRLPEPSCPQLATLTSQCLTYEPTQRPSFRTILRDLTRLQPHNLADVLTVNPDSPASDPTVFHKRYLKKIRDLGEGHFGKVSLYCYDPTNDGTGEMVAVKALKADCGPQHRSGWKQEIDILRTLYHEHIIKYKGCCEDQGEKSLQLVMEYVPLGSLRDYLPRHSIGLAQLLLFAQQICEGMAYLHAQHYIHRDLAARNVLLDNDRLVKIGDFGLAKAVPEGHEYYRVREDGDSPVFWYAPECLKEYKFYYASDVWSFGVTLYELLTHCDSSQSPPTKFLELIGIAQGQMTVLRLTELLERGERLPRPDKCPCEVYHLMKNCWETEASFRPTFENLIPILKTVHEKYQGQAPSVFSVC

IC50 (TYK2 (h)) [nM]	IC50 (Aurora-A (h)) [nM]	SMILES	Cl/F [1] [mL/min/kg]	AUC(0-t) [1] [ng·h/mL]	half-life [1] [h]	Vd [1] [L/kg]
20	104	Cc1c2ccc(Nc3ncc(Cl)c(NC4CC5CN(C(=O)CC#N)CC5C4)n3)cc2nn1C (stereo not shown) [Ex. 4, 3-(5-((5-chloro-2-((2,3-dimethyl-2H-indazol-6-yl)amino)pyrimidin-4-yl)amino)hexahydrocyclopenta[c]pyrrol-2(1H)-yl)-3-oxopropanenitrile]	36.2	458	1.36	1.44
		CC(=O)N1CCC2(CCC(Nc3nc(Nc4ccc5c(C)n(C)nc5c4)ncc3Cl)CC2)CC1 [Ex. 7, 1-(9-((5-chloro-2-((2,3-dimethyl-2H-indazol-6-yl)amino)pyrimidin-4-yl)amino)-3-azaspiro[5.5]undecan-3-yl)ethanone]	24.5	688	0.85	1.68
